Results from ChEMBL document CHEMBL5584340, “Discovery of Novel Antiosteoporosis Leads with Bone Resorption Inhibition and Anabolic Promotion through a Chemotype-Assembly Approach” (J Med Chem, 2024).
Calls of active or inactive are those of the source. No cut-off for these calls is given here.

Assays:
BMDM [1] = assay: Anti-osteoclastogenic activity in M-CSF/RANKL-induced C57BL/6 mouse BMDM cells assessed as inhibition of M-CSF/RANKL-stimulated osteoclast differentiation measured after 5 days by TRAP staining based microscopic analysis; format: functional, cell-based; settings: C57BL/6, BMDM, 120 h
[2] = Cytotoxicity against mouse RAW264.7 cells incubated for 48 hrs by CCK-8 assay; format: toxicity, cell-based
BMDM [3] = assay: Anti-osteoclastogenic activity in M-CSF/RANKL-induced C57BL/6 mouse BMDM cells assessed as downregulation of ATP6VOD2 mRNA expression at 1 uM incubated for 7 days by RT-qPCR analysis; format: functional, cell-based; settings: time 7.0 day
BMDM [4] = assay: Anti-osteoclastogenic activity in M-CSF/RANKL-induced C57BL/6 mouse BMDM cells assessed as downregulation of C-Fos mRNA expression at 1 uM incubated for 7 days by RT-qPCR analysis; format: functional, cell-based; settings: time 7.0 day
BMDM [5] = assay: Anti-osteoclastogenic activity in M-CSF/RANKL-induced C57BL/6 mouse BMDM cells assessed as downregulation of CTSK mRNA expression at 1 uM incubated for 7 days by RT-qPCR analysis; format: functional, cell-based; settings: time 7.0 day
BMDM [6] = assay: Anti-osteoclastogenic activity in M-CSF/RANKL-induced C57BL/6 mouse BMDM cells assessed as downregulation of TRACP mRNA expression at 1 uM incubated for 7 days by RT-qPCR analysis; format: functional, cell-based; settings: time 7.0 day
C3H 10T1/2 [7] = assay: Induction of osteoblast differentiation in mouse C3H 10T1/2 cells at 1 uM incubated for 7 days by ALP staining based analysis; format: functional, cell-based; settings: time 7.0 day
C3H 10T1/2 [8] = assay: Induction of osteoblast mineralization in mouse C3H 10T1/2 cells assessed as increase in calcium deposition at 1 uM measured after 14 days by Alizarin Red S staining based analysis; format: functional, cell-based; settings: time 14.0 day
C3H 10T1/2 [9] = assay: Induction of osteoblastogenesis in mouse C3H 10T1/2 cells assessed as upregulation of ALP gene expression at 1 uM incubated for 7 days by RT-qPCR analysis; format: functional, cell-based; settings: time 7.0 day
C3H 10T1/2 [10] = assay: Induction of osteoblastogenesis in mouse C3H 10T1/2 cells assessed as upregulation of SP7 gene expression at 1 uM incubated for 7 days by RT-qPCR analysis; format: functional, cell-based; settings: time 7.0 day
C3H 10T1/2 [11] = assay: Induction of osteoblastogenesis in mouse C3H 10T1/2 cells assessed as upregulation of SPARC gene expression at 1 uM incubated for 7 days by RT-qPCR analysis; format: functional, cell-based; settings: time 7.0 day
C3H 10T1/2 [12] = assay: Induction of osteoclastogenesis in mouse C3H 10T1/2 cells assessed as upregulation of RANKL gene expression at 1 uM incubated for 7 days by RT-qPCR analysis; format: functional, cell-based; settings: time 7.0 day
[13] = Toxicity in OVX-induced osteoporosis C57BL/6 mouse model assessed as change in water intake at 30 mg/kg,po administrated for 1 week; format: organism-based; settings: in vivo, 168 h, time 1 weeks
[14] = Toxicity in OVX-induced osteoporosis C57BL/6 mouse model assessed as change in body weight at 30 mg/kg,po administrated for 1 week; format: organism-based; settings: in vivo, 168 h, time 1 weeks
[15] = Toxicity in OVX-induced osteoporosis C57BL/6 mouse model assessed as change in hair color at 30 mg/kg,po administrated for 1 week; format: organism-based; settings: in vivo, 168 h, time 1 weeks
[16] = Toxicity in OVX-induced osteoporosis C57BL/6 mouse model assessed as change in mental state at 30 mg/kg,po administrated for 1 week; format: organism-based; settings: in vivo, 168 h, time 1 weeks
[17] = Toxicity in OVX-induced osteoporosis C57BL/6 mouse model assessed as change in stool state at 30 mg/kg,po administrated for 1 week; format: organism-based; settings: in vivo, 168 h, time 1 weeks
[18] = Toxicity in OVX-induced osteoporosis C57BL/6 mouse model assessed as change in urine color at 30 mg/kg,po administrated for 1 week; format: organism-based; settings: in vivo, 168 h, time 1 weeks
Mus musculus [19] = assay: Anti-osteoporosis activity in OVX-induced osteoporosis C57BL/6 mouse model assessed as prevention of bone loss in femur at 10 mg/kg,po administrated for 4 weeks by Micro-CT analysis; format: functional, organism-based
Mus musculus [20] = assay: Anti-osteoporosis activity in OVX-induced osteoporosis C57BL/6 mouse model assessed as increase in BV/TV in femur at 10 mg/kg,po administrated for 4 weeks by Micro-CT analysis; format: functional, organism-based
Mus musculus [21] = assay: Anti-osteoporosis activity in OVX-induced osteoporosis C57BL/6 mouse model assessed as increase in […] in femur at 10 mg/kg,po administrated for 4 weeks by Micro-CT analysis; format: functional, organism-based
Mus musculus [22] = assay: Anti-osteoporosis activity in OVX-induced osteoporosis C57BL/6 mouse model assessed as increase in trabecular number in femur at 10 mg/kg,po administrated for 4 weeks by Micro-CT analysis; format: functional, organism-based
Mus musculus [23] = assay: Anti-osteoporosis activity in OVX-induced osteoporosis C57BL/6 mouse model assessed as increase in trabecular thickness in femur at 10 mg/kg,po administrated for 4 weeks by Micro-CT analysis; format: functional, organism-based
Mus musculus [24] = assay: Anti-osteoporosis activity in OVX-induced osteoporosis C57BL/6 mouse model assessed as decrease in serum CTX-I level at 10 mg/kg,po administrated for 4 weeks; format: functional, organism-based
Mus musculus [25] = assay: Anti-osteoporosis activity in OVX-induced osteoporosis C57BL/6 mouse model assessed as increase in serum osteocalcin level at 10 mg/kg,po administrated for 4 weeks; format: functional, organism-based
Mus musculus [26] = assay: Anti-osteoporosis activity in OVX-induced osteoporosis C57BL/6 mouse model assessed as increase in serum PINP level at 10 mg/kg,po administrated for 4 weeks; format: functional, organism-based
[27] = Toxicity in OVX-induced osteoporosis C57BL/6 mouse model assessed as change in serum ALT level at 10 mg/kg,po administrated for 4 week; format: organism-based; settings: in vivo, 672 h, time 4 weeks
[28] = Toxicity in OVX-induced osteoporosis C57BL/6 mouse model assessed as change in serum AST level at 10 mg/kg,po administrated for 4 week; format: organism-based; settings: in vivo, 672 h, time 4 weeks
[29] = Toxicity in OVX-induced osteoporosis C57BL/6 mouse model assessed as change in serum creatinine level at 10 mg/kg,po administrated for 4 week; format: organism-based; settings: in vivo, 672 h, time 4 weeks
[30] = Toxicity in OVX-induced osteoporosis C57BL/6 mouse model assessed as change in serum urea nitrogen level at 10 mg/kg,po administrated for 4 week; format: organism-based; settings: in vivo, 672 h, time 4 weeks
[31] = Toxicity in OVX-induced osteoporosis C57BL/6 mouse model assessed as change in serum total cholesterol level at 10 mg/kg,po administrated for 4 week; format: organism-based; settings: in vivo, 672 h, time 4 weeks
[32] = Toxicity in OVX-induced osteoporosis C57BL/6 mouse model assessed as change in serum triglyceride level at 10 mg/kg,po administrated for 4 week; format: organism-based; settings: in vivo, 672 h, time 4 weeks
BMDM [33] = assay: Anti-osteoclastogenic activity in M-CSF/RANKL-induced C57BL/6 mouse BMDM cells assessed as fold change in inhibition of M-CSF/RANKL-stimulated osteoclast differentiation at 10 uM measured after 5 days by TRAP staining based microscopic analysis relative to control; format: functional; settings: time 5 day

In the case of `O=C(O)c1cc2ccccc2cc1C(=O)Nc1nc2ccccc2s1`, the IC50 (BMDM [1]) is reported as 0.4 µM, the CC50 at 48 h [2] is reported as 65.5 µM and the Activity (BMDM [3]) is reported as “Active”. For the same compound, the Activity (BMDM [4]) was “Active”, the Activity (BMDM [5]) was “Active” and the Activity (BMDM [6]) was “Active”. The Activity (C3H 10T1/2 [7]) was “Active”, the Activity (C3H 10T1/2 [8]) was “Active” and the Activity (C3H 10T1/2 [9]) was “Active”. The Activity (C3H 10T1/2 [10]) was “Active”, the Activity (C3H 10T1/2 [11]) was “Active” and the Activity (C3H 10T1/2 [12]) was “inactive”. For the same compound, the Activity [13] was “Non-Toxic”, the Activity [14] was “Non-Toxic” and the Activity [15] was “Non-Toxic”. For the same compound, the Activity [16] was “Non-Toxic”, the Activity [17] was “Non-Toxic” and the Activity [18] was “Non-Toxic”. The Activity (Mus musculus [19]) was “Active”, the Activity (Mus musculus [20]) was “Active” and the Activity (Mus musculus [21]) was “Active”. For the same compound, the Activity (Mus musculus [22]) was “Active”, the Activity (Mus musculus [23]) was “Active” and the Activity (Mus musculus [24]) was “Active”. The Activity (Mus musculus [25]) was “Active”, the Activity (Mus musculus [26]) was “Active” and the Activity [27] was “Non-Toxic”. The Activity [28] was “Non-Toxic”, the Activity [29] was “Non-Toxic” and the Activity [30] was “Non-Toxic”. For the same compound, the Activity [31] was “Non-Toxic”, the Activity [32] was “Non-Toxic” and the “fold change (FC)” value (BMDM [33]) was 21.25.
